Measurements taken from patent US12617777B2, “GPR84 antagonists and uses thereof” (Liminal BioSciences Limited, priority 2021, dated 2026).

Target: T1, human GPR84 receptor (Homo sapiens, UniProt Q9NQS5)
T1 construct: host or cells: HEK293, transient transfection
Assay: Gαi biosensor BRET assay in HEK293 cells (antagonism of ZQ-16)
Type: cell-based
Settings: for inhibition at 10 µM: HEK293, single concentration 10 μM (designated F); for IC50: HEK293 cells, antagonism of 200 nmol/L ZQ-16; for inhibition at 2 µM: HEK293, single concentration 2 μM (designated A); for inhibition at 25 µM: HEK293, single concentration 25 μM (designated I)
Summary of the method: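 HEK293 cells transiently expressing human GPR84, Gαi2-Rluc8, GFP10-Gγ2 and Gβ1, in Tyrode's buffer pH 7.5. Compounds preincubated 5 min at 37° C, then 200 nmol/L ZQ-16 for 5 min at room temperature; coelenterazine 400A 5 μmol/L. BRET2 acceptor/donor ratio, background- and vehicle-corrected net BRET.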

T1 sequence (Q9NQS5 whole entry): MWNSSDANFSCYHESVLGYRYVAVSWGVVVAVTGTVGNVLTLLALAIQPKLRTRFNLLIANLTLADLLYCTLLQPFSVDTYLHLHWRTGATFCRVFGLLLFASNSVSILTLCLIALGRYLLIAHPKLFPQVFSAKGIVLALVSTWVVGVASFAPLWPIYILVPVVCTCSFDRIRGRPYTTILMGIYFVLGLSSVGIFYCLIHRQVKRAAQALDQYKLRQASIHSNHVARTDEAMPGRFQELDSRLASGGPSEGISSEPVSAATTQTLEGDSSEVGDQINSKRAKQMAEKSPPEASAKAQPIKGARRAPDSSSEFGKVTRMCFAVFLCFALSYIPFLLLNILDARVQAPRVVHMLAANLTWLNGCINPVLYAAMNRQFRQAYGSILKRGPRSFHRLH

Cc1cc(N2CC(F)C2)ccc1-c1cn(CC2CCCCO2)nn1 (stereo not shown) [Compound I-529]
inhibition at 10 µM: ≤ 25%

CC1(C)COC(Cn2cc(-c3ncc(N4CC(C)(CO)C4)cc3OC3CC3)nn2)OC1 [Compound I-703]
inhibition at 10 µM: > 75% | IC50: 300 to 1000 nM

Cc1cc(N2CC(C)(CN3CC(C)(C)C3)C2)ccc1-c1cn(CC2CCCCO2)nn1 (stereo not shown) [Compound I-660]
inhibition at 10 µM: ≤ 25%

COC(c1cn(CC2CCCCO2)cn1)c1cc(C#CC2CC2)ccc1C (stereo not shown) [Compound I-646]
inhibition at 2 µM: > 75% | IC50: 300 to 1000 nM

C(#CC1CC1)c1ccc(-c2cn(CC3CCCCO3)nn2)c(N2CCC2)c1 (stereo not shown) [Compound I-199]
inhibition at 10 µM: ≤ 25%

COC(c1cn(CC2CCCCO2)nn1)c1cc(C#CC2CC2)ccc1F (stereo not shown) [Compound I-621]
inhibition at 10 µM: 50 to 75%

Cc1cc(C#CCN2CC(C)(C)C2)cnc1-c1cn(Cc2ncccn2)nn1 [Compound I-473]
inhibition at 10 µM: ≤ 25%

COC(=O)c1cc(C#CC2CC2)ccc1-c1cn(CC2CCCCO2)nn1 (stereo not shown) [Compound I-214]
inhibition at 10 µM: ≤ 25%

Cc1cc(N2CC(C)(C(=O)Nc3ccccc3)C2)ccc1-c1cn(CC2CCCCO2)nn1 (stereo not shown) [Compound I-410]
inhibition at 2 µM: 25 to 50%

Cc1cc(C#CC2CC2)ccc1-c1cn(CC2CC(C)(C)CO2)nn1 (stereo not shown) [Compound I-226]
inhibition at 10 µM: > 75% | IC50: 1000 to 3000 nM

CCN(CC)c1cc(N2CC(C)(CO)C2)ccc1-c1cn(CC2OCC3(CC3)CO2)nn1 [Compound I-800]
inhibition at 10 µM: 50 to 75% | IC50: 300 to 1000 nM

CC(C)c1cc(N2CC(C)(C)C2)cnc1-c1cn(CC2CC(C)(C)O2)nn1 (stereo not shown) [Compound I-600]
inhibition at 10 µM: > 75% | IC50: 1000 to 3000 nM

Cc1cc(N2CC(C)(CN(C)c3ccccn3)C2)ccc1-c1cn(CC2CCCCO2)nn1 (stereo not shown) [Compound I-675]
inhibition at 10 µM: > 75%

O=S1(=O)CCC(Cn2cc(-c3ccc(C#CC4CC4)cc3)nn2)CC1 [Compound I-56]
inhibition at 25 µM: ≤ 25%

C(#CC1CC1)c1ccc2c(c1)CCc1cn(CC3CCCCO3)nc1-2 (stereo not shown) [Compound I-328]
inhibition at 10 µM: ≤ 25%

Cc1cc(N2CC(C)(CNc3ccccn3)C2)ccc1-c1cn(CC2OCC(C)(C)CO2)nn1 [Compound I-673]
inhibition at 2 µM: > 75% | IC50: ≤ 300 nM

Cc1cc(C#CC2CC2)ccc1-c1cn(CC2Cc3ccccc3O2)nn1 (stereo not shown) [Compound I-363]
inhibition at 3 µM (HEK293, single concentration 3 μM (designated B)): 25 to 50%

Cc1cc(N2CCN(C)CC2)ccc1-c1cn(C[C@H]2CCCCO2)nn1 [Compound I-111]
inhibition at 10 µM: ≤ 25%

Cc1ccc(C#CC2CC2)nc1-c1cn(CC2CCCCO2)nn1 (stereo not shown) [Compound I-479]
inhibition at 10 µM: ≤ 25%

Cc1cc(N2CC(C)(CO)C2)cnc1-c1cn(CC2OCC(C)(C)CO2)nn1 [Compound I-595]
inhibition at 10 µM: > 75%

Cc1ccc(C#CC2CC2)cc1N(C)c1cn(CC2OCC(C)(C)CO2)nn1 [Compound I-761, N-(5-(cyclopropylethynyl)-2-methylphenyl)-1-((5,5-dimethyl-1,3-dioxan-2-yl)methyl)-N-methyl-1H-1,2,3-triazol-4-amine]
IC50: 300 to 1000 nM

CC(c1cccc(C#CCN2CC(C)(C)C2)c1)c1cn(CC2CCCCO2)nn1 (stereo not shown) [Compound I-425]
inhibition at 10 µM: 25 to 50%

C(#CC1CC1)c1ccc(-c2cn(CC3CCCCO3)nn2)c(N2CCOCC2)c1 (stereo not shown) [Compound I-198]
inhibition at 10 µM: 25 to 50%

Cc1cc(C#CC2CC2)ccc1-c1cn(CC2(C)CCCCO2)nn1 (stereo not shown) [Compound I-554]
inhibition at 2 µM: > 75%

Cc1cc(N2CCN(C(=O)c3ccccn3)CC2)ccc1-c1cn(CC2CCCCO2)nn1 (stereo not shown) [Compound I-534]
inhibition at 10 µM: ≤ 25%

Cc1cc(C#CC2CC2)ccc1-c1cn(Cc2nccs2)nn1 [Compound I-314]
inhibition at 10 µM: 25 to 50%

Cc1ccc(-c2ccc(-c3cn(CC4CCCCO4)nn3)c(C)c2)cn1 (stereo not shown) [Compound I-36]
inhibition at 25 µM: 25 to 50% | IC50: > 3000 nM

Cc1nn(CC2CCCCO2)cc1-c1cccc(C#CC2CC2)c1 (stereo not shown) [Compound I-323]
inhibition at 25 µM: ≤ 25%

Cc1cc(C#CCNC(=O)C(C)(C)C)ccc1-c1cn(CC2CCCCO2)nn1 (stereo not shown) [Compound I-208]
inhibition at 10 µM: 25 to 50%

Cc1cc(N2CC3(CCCN3C)C2)ccc1-c1cn(CC2CCCCO2)nn1 (stereo not shown) [Compound I-148]
inhibition at 10 µM: 50 to 75%
